{"source": "patent US9724408B2", "about": "“Compositions and methods for activating stimulator of interferon gene-dependent signalling” (ADURO BIOTECH, INC., priority 2013, dated 2017)", "key": {"THP1-Blue™ ISG cells": {"tested_on": "THP1-Blue™ ISG cells", "assay": "Type I interferon induction in THP1-Blue ISG reporter cells (QUANTI-Blue, A655)", "assay_type": "cell-based, human", "conditions": "100 μM for 30 minutes, supernatants after overnight incubation, FIG. 7", "description": "To determine the relative level of type I interferon induced in human cells by each of the native and derivative molecules as a signature of adjuvant potency, 4×10^5 THP1-Blue™ ISG cells (a human monocyte cell line transfected with an IRF-inducible secreted embryonic alkaline phosphatase reporter gene (Invivogen) which express alkaline phosphatase under the control of a promoter comprised of five IFN-stimulated response elements) were incubated with 100 μM of cyclic [G(3′,5′)pG(3′,5′)p] (CDG), cyclic [G(2′,5′)pG(3′,5′)p] (mixed linkage, or ML-CDG), or HBSS for 30 minutes at 37° C. with 5% CO2. After 30 minutes, cells were washed and plated in 96-well dish in RPMI media containing 10% FBS, and incubated at 37° C. with 5% CO2. Cell culture supernatants from each sample were collected after overnight incubation, and 20 μL of the cell culture supernatants was added to 180 μL QUANTI-Blue reagent (Invivogen) and incubated for 45 minutes to evaluate type I interferon protein levels. Readings at Absorbance 655 nm were taken every 3 minutes using a Versa Max kinetic spectrophotometer (Molecular Diagnostics).\n[…]. After 30 minutes, cells were washed and plated in 96-well dish in RPMI media containing 10% FBS, and incubated at 37° C. with 5% CO2. Cell culture supernatants from each sample were collected after overnight incubation, and 20 μL of the cell culture supernatants was added to 180 μL QUANTI-Blue reagent (Invivogen) and incubated for 45 minutes. Readings at Absorbance 655 nm were taken at 15 minutes using a SpectraMax spectrophotometer (Molecular Diagnostics).\nThe induction of type I interferon in human cells was measured to evaluate the potency of untreated and phosphodiesterase-treated oxo, Rp monothio and Rp, Rp dithio derivatives. […]. After 30 minutes, cells were washed and plated in a 96-well dish in RPMI media containing 10% FBS, and incubated at 37° C. with 5% CO2. Cell culture supernatants from each sample were collected after 16 hr incubation, and 20 μL of the cell culture supernatants was added to 180 μL QUANTI-Blue reagent (Invivogen) and incubated for 25 minutes to evaluate type I interferon protein levels. Readings at Absorbance 655 nm were measured with a Versa Max spectrophotometer (Molecular Diagnostics)."}, "OVA257-264 peptide [1]": {"tested_on": "OVA257-264 peptide", "assay": "OVA-specific CD8 T cell response after CDN-adjuvanted OVA vaccination (IFNγ ELISpot)", "assay_type": "in vivo, C57BL/6 mice", "conditions": "subcutaneous", "description": "To determine the OVA-specific CD8 T cell response induced by the different cyclic dinucleotide molecules, C57BL/6 mice (n=5) were immunized subcutaneously with 0 μg (no CDN) or 5 μg or 25 μg [G(2′,5′)pG(3′,5′)p] (mixed linkage or ML-CDG) formulated in 2% squalene-and-water with 10 μg ovalbumin protein. Seven days following the vaccination, blood was collected from each animal, and PBMCs were prepared. 5×10^4 PBMCs were stimulated overnight in an IFNγ ELISpot assay with media alone (unstimulated) or with 1 μM OVA257-264 peptide in the presence of 1×10^5 naïve splenocytes as feeder cells. IFNγ ELISpots were developed and quantified using a CTL plate reader and ImmunoSpot software.\nTo determine whether STING signaling is required for c[G(2′,5′)pG(3′,5′)p] (ML-CDG) to induce an OVA-specific CD8 T cell response, C57BL/6 mice (n=3 or 5) and goldenticket mice (n=3) were immunized subcutaneously with either 0 μg (no CDN) or 25 μg c[G(2′,5′)pG(3′,5′)p] (ML-CDG) formulated in 2% squalene-and-water with 10 μg ovalbumin protein. Seven days following the vaccination, blood was collected from each animal, and PBMCs were prepared. […] IFNγ ELISpots were developed and quantified using a CTL plate reader and ImmunoSpot software."}, "OVA257-264 peptide [2]": {"tested_on": "OVA257-264 peptide", "assay": "OVA-specific CD8 T cell response in goldenticket (STING−/−) mice (IFNγ ELISpot)", "assay_type": "in vivo", "conditions": "25 μg in 2% squalene-and-water with 10 μg ovalbumin, subcutaneous, day 7, FIG. 17", "description": "To determine whether STING signaling is required for c[G(2′,5′)pG(3′,5′)p] (ML-CDG) to induce an OVA-specific CD8 T cell response, C57BL/6 mice (n=3 or 5) and goldenticket mice (n=3) were immunized subcutaneously with either 0 μg (no CDN) or 25 μg c[G(2′,5′)pG(3′,5′)p] (ML-CDG) formulated in 2% squalene-and-water with 10 μg ovalbumin protein. Seven days following the vaccination, blood was collected from each animal, and PBMCs were prepared. 5×10^4 PBMCs were stimulated overnight in an IFNγ ELISpot assay with media alone (unstimulated) or with 1 μM OVA257-264 peptide in the presence of 1×10^5 naïve splenocytes as feeder cells. IFNγ ELISpots were developed and quantified using a CTL plate reader and ImmunoSpot software."}, "primary human PBMCs [3]": {"tested_on": "primary human PBMCs", "assay": "Interferon gene expression in primary human PBMCs (real-time quantitative RT-PCR)", "assay_type": "cell-based", "conditions": "5 μM, Effectene transfection, 6 hrs, four donors, FIG. 8", "description": "(§1) To determine the levels of IFN-α, -β and -γ induced by cyclic [G(2′,5′)pG(3′,5′)p] (ML-CDG) compared to cyclic [G(3′,5′)pG(3′,5′)p] as a signature of potency to activate innate immunity, 1×10^6 primary human PBMCs isolated from four independent human donors were incubated in a 96 well U bottom plate for 30 min at 37° C., 5% CO2 with 5 or 0.5 μM of cyclic [G(3′,5′)pG(3′,5′)p] (CDG) or cyclic [G(2′,5′)pG(3′,5′)p] (ML-CDG), 1 μg/mL of Interferon Stimulatory DNA (ISD), or 4 μg/mL of Poly (I:C) utilizing Effectene transfection reagent (Qiagen) to transfer the molecules into the PBMC. ISD (Interferon Stimulating DNA) is TLR independent (Stetston, D. B. et. al. Immunity 24, 93-103, January 2006) and signals through cGAS, and is thus STING-dependent, while Poly (I:C) can signal through both TLR3 and RIG-I pathways, and are thus STING-independent. After 30 minutes, the cells were washed and replaced with RPMI media containing 10% FBS and incubated at 37° C., 5% CO2. After 6 hrs incubation, a portion of the cells were harvested and assessed by real-time quantitative RT-PCR for gene expression of the type I cytokines interferon alpha 2 (IFNA2) and interferon beta 1 (IFNB1), and the type II cytokine gene interferon gamma (IFNG). Gene expression was determined by real-time quantitative RT-PCR using the PrimePCR RNA purification and cDNA analysis system, and run on the CFX96 gene cycler (all BioRad). Normalized expression was determined for each, which accounts for the different efficiencies of PCR amplification for the target (Etarget) and the reference (Ereference), and transforms the logarithmic scaled raw data unit Cycle Threshold (CT) into the linear unit of Normalized Expression. […] To assess correlative secreted protein levels of these cytokines, supernatants were harvested from the remaining cells after 24 hours incubation and IFN-α and -γ levels were determined by Cytometric Bead Array (CBA, BD Biosciences), while IFN-β levels were determined by ELISA (PBL)."}, "primary human PBMCs [4]": {"tested_on": "primary human PBMCs", "assay": "Secreted interferon protein in primary human PBMCs (CBA, ELISA)", "assay_type": "cell-based", "conditions": "24 hours, four donors", "description": "as §1"}}, "data": [{"smiles": "Nc1nc2c(ncn2C2OC3COP(=O)(O)OC4C(O)C(COP(=O)(O)OC3C2O)OC4n2cnc3c(=O)[nH]c(N)nc32)c(=O)[nH]1", "note": "(stereo not shown) [ML-CDG, cyclic-[G(2′,5′)pG(3′,5′)p]]", "values": [{"measurement": "levels of IFN-β (type I interferon protein levels)", "setting": "THP1-Blue™ ISG cells", "result": "significantly higher levels of IFN-β than cyclic [G(3′,5′)pG(3′,5′)p]"}, {"measurement": "OVA-specific CD8 immune responses", "setting": "OVA257-264 peptide [1]; 5 μg or 25 μg in 2% squalene-and-water with 10 μg ovalbumin, day 7, FIG. 16", "result": "significantly higher than responses induced by unstimulated controls and by a no CDN control group"}, {"measurement": "OVA-specific CD8 T cell response, wild-type mice", "setting": "OVA257-264 peptide [1]; 25 μg in 2% squalene-and-water with 10 μg ovalbumin, day 7, FIG. 17", "result": "induces significant OVA257-264 immune responses compared to unstimulated control and a no CDN control"}, {"measurement": "OVA-specific CD8 T cell response, goldenticket mice", "setting": "OVA257-264 peptide [2]", "result": "not significantly different than the OVA-specific responses induced by a control formulation that does not include CDN"}, {"measurement": "gene expression for interferon gamma (IFNG)", "setting": "primary human PBMCs [3]", "result": "significantly higher level"}, {"measurement": "gene expression of interferon alpha 2 (IFNA2)", "setting": "primary human PBMCs [3]", "result": "significantly higher"}, {"measurement": "gene expression of interferon beta 1 (IFNB1)", "setting": "primary human PBMCs [3]", "result": "significantly higher"}, {"measurement": "secretion of IFN-γ", "setting": "primary human PBMCs [4]; 5 μM and 0.5 μM, CBA, FIG. 9(c)", "result": "higher levels of IFN-γ than cyclic [G(3′,5′)pG(3′,5′)p] at the same doses, and higher levels than the ISD and Poly I:C controls"}, {"measurement": "levels of secreted IFN-α", "setting": "primary human PBMCs [4]; 5 μM, CBA, FIG. 9(a)", "result": "higher than cyclic [G(3′,5′)pG(3′,5′)p] at the same or lower dose"}, {"measurement": "levels of IFN-β", "setting": "primary human PBMCs [4]; 5 μM, ELISA, FIG. 9(b)", "result": "higher than with cyclic [G(3′,5′)pG(3′,5′)p] induced levels, as well as for the ISD and Poly I:C controls"}]}]}
